Laboratory results as given in patent publication US11926619B2, “Certain pladienolide compounds and methods of use” (EISAI R&D MANAGEMENT CO., LTD., priority 2018, dated 2024).
Read-outs that look alike come from different tables or passages of the source.

Legend:
Format in all cases: cell-based
[1] = test system: WiDr-R cells (colon cancer cells; chemically-induced SF3B1 R1074H mutant); test: Cell viability assay (CellTiter-Glo, 72 hr), resistant WiDr-R cells (counter-screen); details: WiDr-R cells (SF3B1 R1074H mutation, resistant); read-out: WiDr-R GI50
Protocol: (§1) Cells (WiDr and Panc05.04 obtained from ATCC) were seeded in 96-well plates, with 2000 cells/100 μL/well, and incubated overnight. Spent media was removed, and fresh media containing 9 different concentrations of compound (100 μL/well) were added, with DMSO concentration from compound stock solution adjusted to be 0.1%. Each compound treatment was done in duplicate or triplicate at each concentration.
(§2) Another plate with cells seeded was dedicated as a time zero (Tz) plate, to which was added 0.1% DMSO in media (100 μL/well) followed by CellTiter-Glo® reagent (Promega Corporation, Madison, Wisconsin) (50 μL/well) for ATP measurement as a surrogate of cell viability. Average value from measurement of multiple wells of this plate is used as Tz. Compound-treated plates were incubated for 72 hr at 37° C. Then, CellTiter-Glo® reagent (50 μL/well) was added and ATP was measured. Average value from measurement of the duplicate or triplicate compound-treated wells is used as Ti, and seeded plates with medium having 0.1% DMSO without compound is used as control growth (C).
(§3) Percentage growth inhibition/Percentage viability was calculated as:
(§4) [(Ti−Tz)/(C−Tz)]×100 for concentrations for which Ti>/=Tz
(§5) [(Ti−Tz)/Tz]×100 for concentrations for which Ti<Tz.
(§6) *time zero (Tz), control growth (C), and test growth in the presence of compound (Ti) Percentage growth inhibition/Percentage viability are plotted versus compound concentration to determine Emax.
(§7) Emax refers to the maximum achievable response to a compound in a tested dose range, with a negative value indicating cellular lethality. A larger negative Emax value indicates greater cellular lethality for a particular compound.
The counter-screening of compounds in this viability assay with a “resistant” WiDr-R cell line may indicate whether these compounds have off-target effect(s).

[2] = test system: WiDr cells (colon cancer cells; wildtype SF3B1); test: Cell viability assay (CellTiter-Glo, 72 hr), WiDr cells; details: Homo sapiens
Protocol: as §1, §2, §3, §4, §5, §6
Emax refers to the maximum achievable response to a compound in a tested dose range, with a negative value indicating cellular lethality. A larger negative Emax value indicates greater cellular lethality for a particular compound. […]

[3] = test system: Panc 05.04 cells (pancreatic cancer cells; Q699H and K700E mutations in SF3B1); test: Cell viability assay (CellTiter-Glo, 72 hr), Panc 05.04 cells; details: for Emax: maximum achievable response in tested dose range, negative value = cellular lethality, read-out: Panc 05.04 (mt SF3B1 cells) Emax (%)
Protocol: as §1, §2, §3, §4, §5, §6, §7

[4] = WiDr cells (wildtype SF3B1), read-out: WiDr GI50
[5] = Panc 05.04 cells (mutant SF3B1)
[6] = Panc 05.04 cells (mutant SF3B1), read-out: Panc 05.04 (mt SF3B1 cells), GI50
[7] = WiDr cells, 72 hr, CellTiter-Glo, read-out: WiDr GI50
[8] = Panc 05.04, Panc05.04 cells, 72 hr, CellTiter-Glo, read-out: Panc05.04 GI50

C/C(=C\C=C\[C@@H](C)c1ccccn1)[C@H]1OC(=O)CCCCC[C@@H](OC(=O)N2CCN(C3CCCCCC3)CC2)/C=C/[C@@H]1C
GI50 [1]: 3820 nM
GI50 [2, 4]: 258 nM
Emax [3, 5]: -40.6%
GI50 [3, 6]: 883 nM

C/C(=C\C=C\C1(COC(=O)N2CCCC2)CC1)[C@H]1OC(=O)C[C@H](O)CC[C@@](C)(O)[C@@H](OC(=O)N2CCN(C3CCCCCC3)CC2)/C=C/[C@@H]1C
GI50 [1]: > 1000 nM
GI50 [2, 4]: 138 nM
Emax [3, 5]: -24.7%
GI50 [3, 6]: 302 nM

CC(=O)O[C@H]1/C=C/[C@H](C)[C@@H](/C(C)=C/C=C/C(C)(O)c2cccs2)OC(=O)C[C@H](O)CC[C@@]1(C)O (stereo partly drawn)
GI50 [1]: > 10000 nM
GI50 [2, 4]: 473 nM
Emax [3, 5]: 32.8%
GI50 [3, 6]: 3790 nM

C/C(=C\C=C\[C@@H](C)COC(=O)N1C[C@H](O)[C@@H](O)C1)[C@H]1OC(=O)C[C@H](O)CC[C@@](C)(O)[C@@H](OC(=O)N2CCN(C3CCCCCC3)CC2)/C=C/[C@@H]1C
GI50 [1]: > 1000 nM
GI50 [2, 4]: 294 nM
Emax [3, 5]: -95.4%
GI50 [3, 6]: 74.6 nM

C/C(=C\C=C\[C@@H](C)c1cccnc1)[C@H]1OC(=O)C[C@H](O)CC[C@@](C)(O)[C@@H](OC(=O)N2CCN(C3CCCCCC3)CC2)/C=C/[C@@H]1C (single isomer, unassigned) [Compound 159]
GI50 [2, 7]: 13.3 nM
GI50 [3, 8]: 15 nM

C/C(=C\C=C\[C@@H](C)COC(=O)N1CCCC1)[C@H]1OC(=O)C[C@H](O)CC[C@H](C)[C@@H](OC(=O)N2CCN(C3CCCCCC3)CC2)/C=C/[C@@H]1C
GI50 [1]: > 1000 nM
GI50 [2, 4]: 8.39 nM
Emax [3, 5]: -90.9%
GI50 [3, 6]: 10.8 nM

CCC(=O)[C@@H](C)[C@H]1O[C@@H]1C[C@@](C)(O)/C=C/C=C(\C)[C@H]1OC(=O)CC(=O)CC[C@@](C)(O)[C@@H](OC(C)=O)/C=C/[C@@H]1C
Emax [3, 5]: -81.7%
GI50 [3, 6]: 97.7 nM

CC(=O)O[C@H]1/C=C/[C@H](C)[C@@H](/C(C)=C/C=C/C(C)Cc2ccccn2)OC(=O)C[C@H](O)CC[C@@]1(C)O (stereo partly drawn)
GI50 [1]: > 10000 nM
GI50 [2, 4]: 911 nM
Emax [3, 5]: 20.3%
GI50 [3, 6]: 1670 nM

C/C(=C\C=C\Cc1ccccn1)[C@H]1OC(=O)C[C@H](O)CC[C@@](C)(O)[C@@H](OC(=O)N2CCN(C3CCCCCC3)CC2)/C=C/[C@@H]1C
GI50 [1]: > 1000 nM
GI50 [2, 4]: 148 nM
Emax [3, 5]: 63.5%
GI50 [3, 6]: > 4000 nM

CC(=O)O[C@H]1/C=C/[C@H](C)[C@@H](/C(C)=C/C=C/C(C)(O)CCc2ccc(O)cc2)OC(=O)C[C@H](O)CC[C@@]1(C)O (stereo partly drawn)
Emax [3, 5]: -70.5%
GI50 [3, 6]: 249 nM

C/C(=C\C=C\C(C)c1cccnc1)[C@H]1OC(=O)C[C@H](O)CC[C@@](C)(O)[C@@H](OC(=O)N2CCC(N3CCC(F)CC3)CC2)/C=C/[C@@H]1C (stereo partly drawn)
Emax [3, 5]: 12.5%
GI50 [3, 6]: 862 nM

C/C(=C\C=C\[C@@H](C)COC(=O)N1CCC2(COC2)C1)[C@H]1OC(=O)C[C@H](O)CC[C@@](C)(O)[C@@H](OC(=O)N2CCN(C3CCCCCC3)CC2)/C=C/[C@@H]1C
GI50 [1]: 603 nM
GI50 [2, 4]: 6.39 nM
Emax [3, 5]: -76.4%
GI50 [3, 6]: 7.98 nM

C/C(=C\C=C\[C@@H](C)COC(=O)N1CC[C@@H](NC(=O)OC(C)(C)C)C1)[C@H]1OC(=O)C[C@H](O)CC[C@@](C)(O)[C@@H](OC(=O)N2CCN(C3CCCCCC3)CC2)/C=C/[C@@H]1C
GI50 [1]: > 1000 nM
GI50 [2, 4]: 28 nM
Emax [3, 5]: -59.6%
GI50 [3, 6]: 59.4 nM

C/C(=C\C=C\[C@@H](C)COC(=O)N1CCCC1)[C@H]1OC(=O)C[C@@H](O)CC[C@@](C)(O)[C@@H](OC(=O)N2CCN(C)CC2)/C=C/[C@@H]1C
GI50 [1]: > 1000 nM
GI50 [2, 4]: 25 nM
Emax [3, 5]: -95.4%
GI50 [3, 6]: 12.3 nM

C/C(=C\C=C\C(C)c1ncccn1)[C@H]1OC(=O)CCCCC[C@@H](OC(=O)N2CCN(C)CC2)/C=C/[C@@H]1C (stereo partly drawn)
GI50 [1]: > 1000 nM
GI50 [2, 4]: 45.7 nM
Emax [3, 5]: -72.6%
GI50 [3, 6]: 40.4 nM

C/C(=C\C=C\[C@@H](C)COC(=O)N1CC2CC2C1)[C@H]1OC(=O)C[C@H](O)CC[C@@](C)(O)[C@@H](OC(=O)N2CCN(C3CCCCCC3)CC2)/C=C/[C@@H]1C (stereo partly drawn)
GI50 [1]: > 1000 nM
GI50 [2, 4]: 8.28 nM
Emax [3, 5]: -84.2%
GI50 [3, 6]: 18.6 nM

C/C(=C\C=C\[C@@H](C)COC(=O)N1CCCC1)[C@H]1OC(=O)CCCCC[C@@H](OC(=O)N2CCN(C3CCCCCC3)CC2)/C=C/[C@@H]1C
GI50 [1]: 929 nM
GI50 [2, 4]: 74.6 nM
Emax [3, 5]: -93.3%
GI50 [3, 6]: 170 nM

CC(=O)O[C@H]1/C=C/[C@H](C)[C@@H](/C(C)=C/C=C/C(C)c2cccc(OCC(C)C)n2)OC(=O)C[C@H](O)CC[C@@]1(C)O (stereo partly drawn)
GI50 [1]: > 10000 nM
GI50 [2, 4]: 440 nM
Emax [3, 5]: -27.1%
GI50 [3, 6]: 842 nM

CC(=O)O[C@H]1/C=C/[C@H](C)[C@@H](/C(C)=C/C=C/[C@@H](C)COC(N)=O)OC(=O)C[C@H](O)CC[C@@]1(C)O
GI50 [1]: > 10000 nM
GI50 [2, 4]: 8130 nM
Emax [3, 5]: 40.1%
GI50 [3, 6]: 2090 nM

C/C(=C\C=C\[C@@H](C)COC(=O)n1ccc2ccccc21)[C@H]1OC(=O)C[C@H](O)CC[C@@](C)(O)[C@@H](OC(=O)N2CCN(C)CC2)/C=C/[C@@H]1C
GI50 [1]: > 1000 nM
GI50 [2, 4]: 36.6 nM
Emax [3, 5]: -92.8%
GI50 [3, 6]: 30.5 nM

C/C(=C\C=C\[C@H](C)c1cccnc1)[C@H]1OC(=O)C[C@H](O)CC[C@@](C)(O)[C@@H](OC(=O)N2CCN(C3CCCCCC3)CC2)/C=C/[C@@H]1C (single isomer, unassigned) [Compound 160]
GI50 [2, 7]: 29.5 nM
GI50 [3, 8]: 15.8 nM

CCOc1cccc(CCC(C)/C=C/C=C(\C)[C@H]2OC(=O)C[C@H](O)CC[C@@](C)(O)[C@@H](OC(C)=O)/C=C/[C@@H]2C)c1 (stereo partly drawn)
Emax [3, 5]: -32%
GI50 [3, 6]: 508 nM

COCc1ccc(CCC(C)/C=C/C=C(\C)[C@H]2OC(=O)C[C@H](O)CC[C@@](C)(O)[C@@H](OC(C)=O)/C=C/[C@@H]2C)cc1 (stereo partly drawn)
Emax [3, 5]: -67.3%
GI50 [3, 6]: 321 nM

C/C(=C\C=C\[C@@H](C)COC(=O)N1CC[C@@H](O)C1)[C@H]1OC(=O)CCCCC[C@@H](OC(=O)N(C)C)/C=C/[C@@H]1C
GI50 ([2]; WiDr, read-out: WiDr GI50 (nM)): 154 nM
Emax [3, 5]: -83.7%
GI50 [3, 6]: 139 nM

C/C(=C\C=C\[C@@H](C)CCC(=O)N1CCCC1)[C@H]1OC(=O)CC(O)CCC(C)(O)[C@@H](OC(=O)N2CCN(C)CC2)/C=C/[C@@H]1C (stereo in doubt) [Compound 1, [(2S,3S,4E,6S,7S,10S)-7,10-dihydroxy-3,7-dimethyl-2-[(2E,4E,6S)-6-methyl-9-oxo-9-pyrrolidin-1-ylnona-2,4-dien-2-yl]-12-oxo-1-oxacyclododec-4-en-6-yl] 4-methylpiperazine-1-carboxylate]
cellular lethality (Emax comparison) ([3]; Panc 05.04 cells, mutant SF3B1 cell line): greater cellular lethality than Compound 7

CC[C@H](O)[C@@H](C)[C@H]1O[C@@H]1C[C@@](C)(O)/C=C/C=C(\C)[C@H]1OC(=O)C[C@H](O)CC[C@@](C)(OC)[C@@H](OC(=O)N(C)CCN(C)C)/C=C/[C@@H]1C
Emax [3, 5]: -64.4%
GI50 [3, 6]: 3.48 nM

COCc1ccccc1CCC(C)/C=C/C=C(\C)[C@H]1OC(=O)C[C@H](O)CC[C@@](C)(O)[C@@H](OC(C)=O)/C=C/[C@@H]1C (stereo partly drawn)
Emax [3, 5]: -39.5%
GI50 [3, 6]: 427 nM

CC(=O)O[C@H]1/C=C/[C@H](C)[C@@H](/C(C)=C/C=C/C(C)CCc2ccccc2)OC(=O)C[C@H](O)CC[C@@]1(C)O (stereo partly drawn)
Emax [3, 5]: -26.4%
GI50 [3, 6]: 827 nM

CC[Si](CC)(CC)O[C@@H]1CCN(c2nccc(C(C)/C=C/C=C(\C)[C@H]3OC(=O)CCCCC[C@@H](OC(=O)N4CCN(C5CCCCCC5)CC4)/C=C/[C@@H]3C)n2)C1 (stereo partly drawn)
GI50 [1]: > 10000 nM
GI50 [2, 4]: > 1000 nM
